This is an account of results in ChEMBL document CHEMBL3259585, “Molecular basis of the selective binding of MDMA enantiomers to the alpha4beta2 nicotinic receptor subtype: synthesis, pharmacological evaluation and mechanistic studies” (Eur J Med Chem, 2014).

pIC50, pKi: −log10 of the molar value. Calls of active or inactive are those of the source. The rule behind the calls is not given here.

For assay [1], the target named is T1, Neuronal acetylcholine receptor; alpha4/beta2 (Rattus norvegicus) (UniProt P09483+P12390). The experiment in a line: Stimulation of [3H]epibatidine binding to alpha4beta2 nAChR in rat PC12 cells at 100 uM preincubated for 24 hrs followed by radioligand addition measured after 90 mins by liquid scintillation spectrometric analysis. Type of assay: cell-based. The conditions noted are these: PC-12.

Assay [2] deals with T2, Neuronal acetylcholine receptor; alpha4/beta2 (Rattus norvegicus, UniProt P09483+P12390). Nature of the assay: Displacement of [3H]epibatidine from alpha4beta2 nAChR in Sprague-Dawley rat brain cortical membrane after 3 hrs. It is filed as tissue-based. Background: Displacement assays read how much labelled ligand stays bound in the presence of the test substance.
The target of assay [3] is T2, Neuronal acetylcholine receptor; alpha4/beta2. Nature of the assay: (§1) Displacement of [3H]epibatidine from alpha4beta2 nAChR in Sprague-Dawley rat brain cortical membrane after 3 hrs by liquid scintillation spectrometric analysis. It is filed as tissue-based.
Assay [4] deals with T1, Neuronal acetylcholine receptor; alpha4/beta2 (Rattus norvegicus). Described as §1. Type of assay: tissue-based.
In another assay the test system is Rattus norvegicus. The experiment in a line: In vivo stimulation of [3H]epibatidine binding to nicotinic acetylcholine receptor in rat prefrontal cortex relative to control. It is filed as functional.
Assay [5] addresses Sodium-dependent serotonin transporter (Rattus norvegicus, UniProt P31652). Nature of the assay: Displacement of [3H]-citalopram from SERT in Sprague-Dawley rat cortex, striatum and cerebellum-dissected brain after 60 mins by scintillation counting analysis. Type of assay: tissue-based.

T2 sequence (P09483 whole entry): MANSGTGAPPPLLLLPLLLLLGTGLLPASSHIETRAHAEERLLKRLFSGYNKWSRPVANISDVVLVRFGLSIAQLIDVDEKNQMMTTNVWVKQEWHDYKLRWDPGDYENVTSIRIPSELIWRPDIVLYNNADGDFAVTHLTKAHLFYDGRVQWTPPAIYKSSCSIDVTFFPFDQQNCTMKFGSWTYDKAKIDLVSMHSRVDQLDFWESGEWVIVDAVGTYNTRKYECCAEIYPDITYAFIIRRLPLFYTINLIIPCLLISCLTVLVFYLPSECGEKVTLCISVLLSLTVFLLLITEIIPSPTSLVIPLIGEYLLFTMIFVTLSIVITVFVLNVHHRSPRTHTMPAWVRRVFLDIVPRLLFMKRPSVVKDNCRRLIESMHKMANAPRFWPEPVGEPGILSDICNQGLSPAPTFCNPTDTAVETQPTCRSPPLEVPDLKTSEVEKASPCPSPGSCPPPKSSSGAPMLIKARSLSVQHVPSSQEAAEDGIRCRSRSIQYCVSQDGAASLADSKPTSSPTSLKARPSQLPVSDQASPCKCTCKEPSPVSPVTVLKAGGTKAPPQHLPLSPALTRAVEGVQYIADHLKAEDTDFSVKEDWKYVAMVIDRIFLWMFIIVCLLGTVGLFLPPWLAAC
T2 sequence (P12390 whole entry): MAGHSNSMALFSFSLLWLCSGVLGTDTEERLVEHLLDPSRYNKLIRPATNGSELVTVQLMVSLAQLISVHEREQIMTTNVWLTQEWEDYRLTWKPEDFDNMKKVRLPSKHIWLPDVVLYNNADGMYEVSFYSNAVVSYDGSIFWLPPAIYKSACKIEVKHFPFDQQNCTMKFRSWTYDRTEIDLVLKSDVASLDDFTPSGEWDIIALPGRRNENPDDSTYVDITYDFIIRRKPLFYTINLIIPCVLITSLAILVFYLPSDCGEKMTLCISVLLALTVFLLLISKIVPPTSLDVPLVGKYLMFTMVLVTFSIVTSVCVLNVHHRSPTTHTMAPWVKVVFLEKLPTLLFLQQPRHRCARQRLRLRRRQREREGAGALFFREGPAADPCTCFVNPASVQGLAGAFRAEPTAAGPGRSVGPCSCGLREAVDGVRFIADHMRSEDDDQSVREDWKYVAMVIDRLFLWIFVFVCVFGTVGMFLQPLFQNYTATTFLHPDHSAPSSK
Chain of Sodium-dependent serotonin transporter (P31652 whole entry): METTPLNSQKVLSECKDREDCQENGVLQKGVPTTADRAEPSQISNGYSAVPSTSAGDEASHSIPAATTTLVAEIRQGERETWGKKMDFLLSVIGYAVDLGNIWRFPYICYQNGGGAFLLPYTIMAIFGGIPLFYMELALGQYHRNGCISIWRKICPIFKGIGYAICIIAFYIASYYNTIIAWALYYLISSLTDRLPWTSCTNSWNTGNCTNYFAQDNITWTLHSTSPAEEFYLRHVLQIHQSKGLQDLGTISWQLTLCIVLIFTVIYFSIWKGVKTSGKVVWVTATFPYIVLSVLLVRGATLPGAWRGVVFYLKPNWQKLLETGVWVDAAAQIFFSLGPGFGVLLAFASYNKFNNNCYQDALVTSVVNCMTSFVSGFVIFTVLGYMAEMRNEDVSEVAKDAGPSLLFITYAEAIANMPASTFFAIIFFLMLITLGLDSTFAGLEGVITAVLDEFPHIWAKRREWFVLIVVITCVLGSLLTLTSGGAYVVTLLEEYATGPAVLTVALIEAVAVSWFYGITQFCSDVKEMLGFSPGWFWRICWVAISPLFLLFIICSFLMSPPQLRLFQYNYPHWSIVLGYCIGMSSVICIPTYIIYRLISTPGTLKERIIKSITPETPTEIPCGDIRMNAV

`CNC(C)Cc1ccc2c(c1)OCO2` (racemic) [MIDOMAFETAMINE]: the outcome in assay [1] was Active. In addition, the pKi in assay [2] was 5.84. Besides, the pIC50 in assay [3] was 4.52. Besides, in assay [4], the inhibition entry is “Dose-dependent effect”. In the assay on Rattus norvegicus, the Activity is 35%.

Take `CN[C@@H](C)Cc1ccc2c(c1)OCO2`: the outcome in assay [1] was inactive. The molecule further showed a pKi in assay [2] of 5.09. In assay [3], this molecule showed a pIC50 of 3.76. Further, the inhibition result in assay [4] was “Dose-dependent effect”.

For the molecule `CN[C@H](C)Cc1ccc2c(c1)OCO2`, the values for the pKi in assay [5] and in assay [2] were 4.61 and 6.20, respectively. Further, the outcome in assay [1] was Active. This molecule gave a pIC50 in assay [3] of 4.87. The inhibition result in assay [4] is “Dose-dependent effect”.

On to `CN1CCC[C@H]1c1cccnc1` [NICOTINE], for which the Activity with Rattus norvegicus was determined as 30%.

For orientation: pKi means the negative decadic logarithm of the Ki, by convention in mol/L. Read a low pKi as a high Ki. In general, pIC50 refers to the IC50 on a negative log10 scale, so that one unit is a factor of ten. A high value points to a low IC50.
